PMC10857328, “Utilization of Biopolymer-Based Lutein Emulsion as an Effective Delivery System to Improve Lutein Bioavailability in Neonatal Rats” (Nutrients, 2024)
Like-named read-outs stand apart in the source and are kept apart here. Marks after values point to notes of the source that are not given here.

How the values were obtained:
[1] = Daily dosing study 1 (maternal purified diet with no lutein): serum and tissue lutein concentrations; format: in vivo, neonatal Sprague-Dawley rats; settings: for Lutein concentration, serum: 2 mg/kg daily oral P5-P18, sampled P19
Description: Serum and tissue lutein concentration was determined using an ultra-performance liquid chromatography (UPLC) system (Waters, Milford, MA, USA) equipped with a photo-diode array detector (PDA)/MS/MS, according to our well-established methods with slight modification. As for the serum, 100 μL of the sample was incubated with 2 mL of 100% ethanol at room temperature for an hour for lipid extraction. For the tissues, ~0.1 g of the sample was weighed, homogenized, and incubated with 2 mL of 100% ethanol at room temperature for an hour. An amount of 1 mL of 5% (w/v) potassium hydroxide was added to the sample and incubated in a water bath at 60 °C for 45 min for saponification. Upon saponification, samples were allowed to cool for about 15 min, and then an addition of 4 mL of hexane containing 0.1% butylated hydroxytoluene (w/v) and 2 mL of deionized water was added. The mixture was vortexed for 20 s and centrifuged at 1600 rpm at 25 °C for 15 min. The upper layer was collected following centrifugation and dried under nitrogen at 37 °C. The dried sample was then rinsed twice with hexane, dried, and reconstituted with 100 µL of acetonitrile-methanol. The reconstituted sample was centrifuged for 2 min to remove any possible precipitation. For UPLC analysis, 10 µL of the sample was injected into the Waters Acquity UPLC HSS T3 column. Solvent A was acetonitrile: methanol (50:50, v/v), and solvent B was 100% isopropanol. The mobile phase was made up of solvent A and solvent B in a volume ratio of 95:5 (v/v). The flow rate was set as 0.5 mL/min, and the column temperature was maintained at 35 °C. The detection wavelength was set at 446 nm. Retinyl acetate (Sigma-Aldrich, St. Louis, MO, USA) was used as the internal standard. To determine the effects of daily consumption of CTA-stabilized lutein emulsion on tissue lutein status, two daily dosing studies were conducted. The procedures were approved by the Institutional Animal Care and Use Committee of the University of Alabama (Number: 21-02-4373, 4 February 2021). For daily dosing study 1 (Figure 1B), on P5, rat pups (n = 8–9/group) were randomly selected from the litters and received an oral dose of either free lutein (i.e., lutein ester dissolved in olive oil) or lutein emulsion both containing 2 mg/kg body weight of lutein. […] Dosing was repeated daily until P18. The dosage was determined from previous research in both rodent and human newborns and was also established as an Acceptable Daily Intake for lutein by the Joint Food and Agricultural Organization/World Health Organization. On P19, pups were euthanized. Rats are known to wean between P19 and P21 [47]. Blood from vena cava, liver, spleen, brain, eye, kidney, lung, white adipose tissue (WAT), and brown adipose tissue (BAT) were collected. Blood samples were centrifuged to obtain serum. Serum and collected tissues were frozen at −80 °C until analysis. Serum and tissue lutein concentrations were analyzed using the methods described in Section 2.3.2.

[2] = encapsulation technique Nanoparticles, Sprague-Dawley rats, cited from earlier work
[3] = 2 mg/kg daily oral P5-P18, maternal purified diet with no lutein
[4] = 2 mg/kg daily oral P5-P18, maternal purified diet with no lutein, listed as free lutein
[5] = daily dosing study 1 vs study 2

Substance: Lutein ester [Free Lutein]
- Lutein concentration, serum ([1]; maternal purified diet with no lutein): 112.42 ± 34.60 ^a nmol/L
- Lutein concentration, serum ([1]; maternal purified diet with no lutein, listed as free lutein): 112.42 ± 34.60 nmol/L
- Lutein concentration, BAT [1, 3]: 0.02 ± 0.002 ^a nmol/g
- Lutein concentration, WAT [1, 3]: 0.08 ± 0.04 ^a nmol/g
- Lutein concentration, brain [1, 3]: 0.04 ± 0.01 ^b nmol/g
- Lutein concentration, eye [1, 3]: 0.04 ± 0.01 ^a nmol/g
- Lutein concentration, kidney [1, 3]: 0.12± 0.04 ^b nmol/g
- Lutein concentration, liver [1, 3]: 2.52 ± 1.29 ^b nmol/g
- Lutein concentration, lung [1, 3]: 0.06 ± 0.01 ^a nmol/g
- Lutein concentration, spleen [1, 3]: 0.66 ± 0.18 ^a nmol/g
- Lutein concentration, BAT [1, 4]: 0.02 ± 0.002 nmol/g
- Lutein concentration, brain [1, 4]: 0.04 ± 0.01 nmol/g
- Lutein concentration, eye [1, 4]: 0.02 ± 0.007 nmol/g
- Lutein concentration, kidney [1, 4]: 0.12 ± 0.04 nmol/g
- Lutein concentration, liver [1, 4]: 2.52 ± 1.29 nmol/g
- Lutein concentration, lung [1, 4]: 0.06 ± 0.01 nmol/g
- Lutein concentration, spleen [1, 4]: 0.66 ± 0.18 nmol/g
- Fold higher eye lutein concentration, no-lutein maternal diet vs diet containing lutein [1, 5]: 2.00 fold
- Fold higher liver lutein concentration, no-lutein maternal diet vs diet containing lutein [1, 5]: 2.04 fold
- Fold higher serum lutein concentration, no-lutein maternal diet vs diet containing lutein [1, 5]: 6.38 fold
- Tmax (serum) ([2]; ref Chang et al. (2018) [59]): 3 h
- Tmax (serum) ([2]; ref Liu et al. (2017) [37]): 2 h
- Tmax (serum) ([2]; ref Wu et al. (2019) [54]): 2 h
- Tmax (serum) ([2]; ref Zhang et al. (2015) [58]): 6 ± 2.2 h
